Laboratory results taken from ChEMBL document CHEMBL3885881, “DrugMatrix”.

Species: Rattus norvegicus
Assay: DrugMatrix - Regimen: Daily Repeat
Type: toxicity, organism-based, Sprague-Dawley
Parameters: regimen Daily Repeat, gender Male, age 6-8 weeks
Settings: in vivo, po, route oral GAVAGE, vehicle 100 % WATER; for ABSOLUTE BASOPHIL / ABSOLUTE EOSINOPHIL / ABSOLUTE LYMPHOCYTE / ABSOLUTE MONOCYTE / ABSOLUTE SEGMENTED NEUTROPHIL / BASOPHIL / EOSINOPHIL / ERYTHROCYTE COUNT / HEMATOCRIT / HEMOGLOBIN / LEUKOCYTE COUNT / LYMPHOCYTE / MEAN CORPUSCULAR HEMOGLOBIN / MEAN CORPUSCULAR HEMOGLOBIN CONCENTRATION / MEAN CORPUSCULAR VOLUME / MONOCYTE / NEUTROPHIL / NUCLEATED RED BLOOD CELLS / PLATELET COUNT: tissue Blood; for ALANINE AMINOTRANSFERASE / ALBUMIN / ALKALINE PHOSPHATASE / ASPARTATE AMINOTRANSFERASE / BLOOD UREA NITROGEN / CARBON DIOXIDE / CHLORIDE / CHOLESTEROL / CREATINE PHOSPHOKINASE / CREATININE / GLUCOSE / LACTATE DEHYDROGENASE / LIPASE / PHOSPHORUS / POTASSIUM / SODIUM / TOTAL BILIRUBIN / TOTAL PROTEIN / URIC ACID: tissue Plasma
[1] = 0 mg/kg, 72 h, dose level Control, time 3 day
[2] = 0 mg/kg, 120 h, dose level Control, time 5 day
[3] = 2 mg/kg, 72 h, dose level Low, time 3 day

C[C@]12C=CC(=O)C=C1CC[C@@H]1[C@@H]2[C@@H](O)C[C@@]2(C)[C@H]1CC[C@]2(O)C(=O)CO [PREDNISOLONE]
ABSOLUTE BASOPHIL [1]: 0 CELLS/uL | ABSOLUTE EOSINOPHIL [1]: 24 CELLS/uL | ABSOLUTE LYMPHOCYTE [1]: 13105 CELLS/uL | ABSOLUTE MONOCYTE [1]: 76 CELLS/uL | ABSOLUTE SEGMENTED NEUTROPHIL [1]: 2145 CELLS/uL | BASOPHIL [1]: 0% | EOSINOPHIL [1]: 0.17% | ERYTHROCYTE COUNT [1]: 5.81 x10E6/uL | HEMATOCRIT [1]: 35.6% | HEMOGLOBIN [1]: 13.72 G/DL | LEUKOCYTE COUNT [1]: 15.35 x10E3/uL | LYMPHOCYTE [1]: 85.5% | MEAN CORPUSCULAR HEMOGLOBIN [1]: 23.62 pg | MEAN CORPUSCULAR HEMOGLOBIN CONCENTRATION [1]: 38.55 G/DL | MEAN CORPUSCULAR VOLUME [1]: 61.23 fL | MONOCYTE [1]: 0.5% | NEUTROPHIL [1]: 13.83% | NUCLEATED RED BLOOD CELLS [1]: 0 /100WBC | PLATELET COUNT [1]: 1189.83 x10E3/uL | ALANINE AMINOTRANSFERASE [1]: 48.67 u/L | ALBUMIN [1]: 4.27 G/DL | ALKALINE PHOSPHATASE [1]: 335 u/L | ASPARTATE AMINOTRANSFERASE [1]: 86.5 u/L | BLOOD UREA NITROGEN [1]: 14.33 mg/dL | CARBON DIOXIDE [1]: 29.17 mmol/L | CHLORIDE [1]: 99.83 MEQ/L | CHOLESTEROL [1]: 71.83 mg/dL | CREATINE PHOSPHOKINASE [1]: 506.83 u/L | CREATININE [1]: 0.18 mg/dL | GLUCOSE [1]: 162.17 mg/dL | LACTATE DEHYDROGENASE [1]: 264.5 u/L | LIPASE [1]: 9.67 u/L | PHOSPHORUS [1]: 11.92 mg/dL | POTASSIUM [1]: 6.55 MEQ/L | SODIUM [1]: 141.53 MEQ/L | TOTAL BILIRUBIN [1]: 0.18 mg/dL | TOTAL PROTEIN [1]: 5.87 G/DL | URIC ACID [1]: 1.67 mg/dL | ABSOLUTE BASOPHIL [2]: 0 CELLS/uL | ABSOLUTE EOSINOPHIL [2]: 25.33 CELLS/uL | ABSOLUTE LYMPHOCYTE [2]: 15680 CELLS/uL | ABSOLUTE MONOCYTE [2]: 92.33 CELLS/uL | ABSOLUTE SEGMENTED NEUTROPHIL [2]: 2102.33 CELLS/uL | BASOPHIL [2]: 0% | EOSINOPHIL [2]: 0.17% | ERYTHROCYTE COUNT [2]: 6 x10E6/uL | HEMATOCRIT [2]: 35.55% | HEMOGLOBIN [2]: 14.12 G/DL | LEUKOCYTE COUNT [2]: 17.9 x10E3/uL | LYMPHOCYTE [2]: 87.33% | MEAN CORPUSCULAR HEMOGLOBIN [2]: 23.65 pg | MEAN CORPUSCULAR HEMOGLOBIN CONCENTRATION [2]: 39.77 G/DL | MEAN CORPUSCULAR VOLUME [2]: 59.52 fL | MONOCYTE [2]: 0.5% | NEUTROPHIL [2]: 12% | NUCLEATED RED BLOOD CELLS [2]: 0.17 /100WBC | PLATELET COUNT [2]: 1325.67 x10E3/uL | ALANINE AMINOTRANSFERASE [2]: 56.17 u/L | ALBUMIN [2]: 4.23 G/DL | ALKALINE PHOSPHATASE [2]: 371.5 u/L | ASPARTATE AMINOTRANSFERASE [2]: 91 u/L | BLOOD UREA NITROGEN [2]: 15.33 mg/dL | CARBON DIOXIDE [2]: 27.67 mmol/L | CHLORIDE [2]: 99.5 MEQ/L | CHOLESTEROL [2]: 66.5 mg/dL | CREATINE PHOSPHOKINASE [2]: 518.5 u/L | CREATININE [2]: 0.18 mg/dL | GLUCOSE [2]: 143.33 mg/dL | LACTATE DEHYDROGENASE [2]: 238.83 u/L | LIPASE [2]: 9.33 u/L | PHOSPHORUS [2]: 10.68 mg/dL | POTASSIUM [2]: 6.5 MEQ/L | SODIUM [2]: 141.88 MEQ/L | TOTAL BILIRUBIN [2]: 0.18 mg/dL | TOTAL PROTEIN [2]: 6 G/DL | URIC ACID [2]: 1.63 mg/dL | ABSOLUTE BASOPHIL [3]: 0 CELLS/uL | ABSOLUTE EOSINOPHIL [3]: 0 CELLS/uL | ABSOLUTE LYMPHOCYTE [3]: 13282 CELLS/uL | ABSOLUTE MONOCYTE [3]: 183.67 CELLS/uL | ABSOLUTE SEGMENTED NEUTROPHIL [3]: 1434.33 CELLS/uL | BASOPHIL [3]: 0% | EOSINOPHIL [3]: 0% | ERYTHROCYTE COUNT [3]: 5.89 x10E6/uL | HEMATOCRIT [3]: 36.9% | HEMOGLOBIN [3]: 14.23 G/DL | LEUKOCYTE COUNT [3]: 14.9 x10E3/uL | LYMPHOCYTE [3]: 88.67% | MEAN CORPUSCULAR HEMOGLOBIN [3]: 24.17 pg | MEAN CORPUSCULAR HEMOGLOBIN CONCENTRATION [3]: 38.57 G/DL | MEAN CORPUSCULAR VOLUME [3]: 62.63 fL | MONOCYTE [3]: 1% | NEUTROPHIL [3]: 10.33% | NUCLEATED RED BLOOD CELLS [3]: 0 /100WBC | PLATELET COUNT [3]: 1283.33 x10E3/uL | ALANINE AMINOTRANSFERASE [3]: 48.33 u/L | ALBUMIN [3]: 4.37 G/DL | ALKALINE PHOSPHATASE [3]: 335.33 u/L | ASPARTATE AMINOTRANSFERASE [3]: 82.67 u/L | BLOOD UREA NITROGEN [3]: 15.67 mg/dL | CARBON DIOXIDE [3]: 25.33 mmol/L | CHLORIDE [3]: 101.33 MEQ/L | CHOLESTEROL [3]: 64.67 mg/dL | CREATINE PHOSPHOKINASE [3]: 495.33 u/L | CREATININE [3]: 0.15 mg/dL | GLUCOSE [3]: 167.67 mg/dL | LACTATE DEHYDROGENASE [3]: 139 u/L | LIPASE [3]: 9.67 u/L | PHOSPHORUS [3]: 12.63 mg/dL | POTASSIUM [3]: 5.96 MEQ/L | SODIUM [3]: 144.8 MEQ/L | TOTAL BILIRUBIN [3]: 0.17 mg/dL | TOTAL PROTEIN [3]: 6.1 G/DL | URIC ACID [3]: 1.97 mg/dL
